Assay results as given in paper PMC11342346 (ACS Bio & Med Chem Au, 2024).
*1 amine or outer side, *2 acyl side, *3 side chain or, on linkers, in order; H or OH if unused. Where a SMILES comes first, the peptide text is derived from it. Bridges are numbered along the chain shown (N, C = ends). Roman numbers before positions name the chains, in order. Where no end group is shown, it is not given here. The star is where a group is joined. CO(CH2CH2O)5CH2CH2CO = O=C(CCOCCOCCOCCOCCOCCC(=O)[*:2])[*:1]; PEG12 = NCCOCCOCCOCCOCCOCCOCCOCCOCCOCCOCCOCCOCCC(=O)O; Biotin = O=C1N[C@H]2[C@H](CS[C@H]2CCCCC(=O)*)N1; PEG2 = NCCOCCOCCC(=O)O

Columns and labels:
[1] = tested on: Wnt signaling in HEK293 TOPbrite (TB) luciferase reporter cells; type: cell-based; conditions: three independent runs
[2] = tested on: Ring Finger Protein 43 (RNF43); type: binding; conditions: SPR, DCP immobilized on streptavidin sensor, RNF43 as analyte
biotin-PEG12-MK1-3.6.10S = test: SPR
biotin-PEG2-MK1-3.6.10S = test: SPR

human ZNRF3 (free, in solution), sequence (Q9ULT6 56-936): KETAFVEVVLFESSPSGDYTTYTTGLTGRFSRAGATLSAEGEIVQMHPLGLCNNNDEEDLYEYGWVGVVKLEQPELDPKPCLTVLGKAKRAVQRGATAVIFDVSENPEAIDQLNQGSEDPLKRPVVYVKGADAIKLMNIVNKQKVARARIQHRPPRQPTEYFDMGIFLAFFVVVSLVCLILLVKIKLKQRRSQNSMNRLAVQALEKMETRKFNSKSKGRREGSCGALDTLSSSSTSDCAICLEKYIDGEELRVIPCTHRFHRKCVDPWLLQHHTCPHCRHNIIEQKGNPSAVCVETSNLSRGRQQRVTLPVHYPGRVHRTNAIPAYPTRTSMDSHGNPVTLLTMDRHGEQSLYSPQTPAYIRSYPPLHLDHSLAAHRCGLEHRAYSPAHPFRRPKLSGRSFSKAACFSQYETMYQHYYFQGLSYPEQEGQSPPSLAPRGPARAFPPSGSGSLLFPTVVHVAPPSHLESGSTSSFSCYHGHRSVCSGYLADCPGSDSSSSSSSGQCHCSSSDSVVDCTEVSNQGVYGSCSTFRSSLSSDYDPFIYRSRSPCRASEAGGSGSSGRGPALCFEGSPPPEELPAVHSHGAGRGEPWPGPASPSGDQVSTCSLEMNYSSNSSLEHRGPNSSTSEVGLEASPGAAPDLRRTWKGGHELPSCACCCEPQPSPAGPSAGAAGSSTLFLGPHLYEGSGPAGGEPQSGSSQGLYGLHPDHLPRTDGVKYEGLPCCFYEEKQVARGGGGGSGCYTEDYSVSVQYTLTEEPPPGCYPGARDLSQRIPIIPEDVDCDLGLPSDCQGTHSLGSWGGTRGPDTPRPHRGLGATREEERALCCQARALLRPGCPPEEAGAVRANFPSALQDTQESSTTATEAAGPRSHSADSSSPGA

## I: SCNRLNKKCNSDADCCANKEKCERPIGWKFMYCRPDVGP / II: SCNRLNKKCNSDADCCANKEKCERPIGWKFMYCRPDVGP (disulfide I:2-I:16, I:9-I:22, I:15-I:33, II:2-II:16, II:9-II:22, II:15-II:33; linker I:N-II:N via CO(CH2CH2O)5CH2CH2CO) [di-MK1-3.6.10S]
[1]
  activation of Wnt signaling in reporter assay (in words): able to induce Wnt signaling activation to a similar extent to the synthetic MK1-3.6.10 dimer

## CC[C@H](C)[C@@H]1NC(=O)[C@@H]2CCCN2C(=O)[C@H](CCCNC(=N)N)NC(=O)[C@H](CCC(=O)O)NC(=O)[C@@H]2CSSC[C@@H]3NC(=O)[C@H](CCCCN)NC(=O)[C@H](CCCCN)NC(=O)[C@H](CC(N)=O)NC(=O)[C@H](CC(C)C)NC(=O)[C@H](CCCNC(=N)N)NC(=O)[C@H](CC(N)=O)NC(=O)[C@@H](NC(=O)[C@H](CO)NC(=O)CCOCCOCCOCCOCCOCCOCCOCCOCCOCCOCCOCCOCCNC(=O)CCCC[C@@H]4SC[C@@H]5NC(=O)N[C@@H]54)CSSC[C@H](NC(=O)[C@H](CSSC[C@@H](C(=O)N[C@@H](CCCNC(=N)N)C(=O)N4CCC[C@H]4C(=O)N[C@@H](CC(=O)O)C(=O)N[C@H](C(=O)NCC(=O)N4CCC[C@H]4C(=O)O)C(C)C)NC(=O)[C@H](Cc4ccc(O)cc4)NC(=O)[C@H](CCSC)NC(=O)[C@H](Cc4ccccc4)NC(=O)[C@H](CCCCN)NC(=O)[C@H](Cc4c[nH]c5ccccc45)NC(=O)CNC1=O)NC(=O)[C@H](CC(=O)O)NC(=O)[C@H](C)NC(=O)[C@H](CC(=O)O)NC(=O)[C@H](CO)NC(=O)[C@H](CC(N)=O)NC3=O)C(=O)N[C@@H](C)C(=O)N[C@@H](CC(N)=O)C(=O)N[C@@H](CCCCN)C(=O)N[C@@H](CCC(=O)O)C(=O)N[C@@H](CCCCN)C(=O)N2 [biotin-PEG12-MK1-3.6.10S] ({Biotin-PEG12}-SCNRLNKKCNSDADCCANKEKCERPIGWKFMYCRPDVGP-OH; disulfide 2-16, 9-22, 15-33; C-terminus assumed)
[2]
  binding to RNF43: did not bind

## CC[C@H](C)[C@@H]1NC(=O)[C@@H]2CCCN2C(=O)[C@H](CCCNC(=N)N)NC(=O)[C@H](CCC(=O)O)NC(=O)[C@@H]2CSSC[C@@H]3NC(=O)[C@H](CCCCN)NC(=O)[C@H](CCCCN)NC(=O)[C@H](CC(N)=O)NC(=O)[C@H](CC(C)C)NC(=O)[C@H](CCCNC(=N)N)NC(=O)[C@H](CC(N)=O)NC(=O)[C@@H](NC(=O)[C@H](CO)NC(=O)CCOCCOCCNC(=O)CCCC[C@@H]4SC[C@@H]5NC(=O)N[C@@H]54)CSSC[C@H](NC(=O)[C@H](CSSC[C@@H](C(=O)N[C@@H](CCCNC(=N)N)C(=O)N4CCC[C@H]4C(=O)N[C@@H](CC(=O)O)C(=O)N[C@H](C(=O)NCC(=O)N4CCC[C@H]4C(=O)O)C(C)C)NC(=O)[C@H](Cc4ccc(O)cc4)NC(=O)[C@H](CCSC)NC(=O)[C@H](Cc4ccccc4)NC(=O)[C@H](CCCCN)NC(=O)[C@H](Cc4c[nH]c5ccccc45)NC(=O)CNC1=O)NC(=O)[C@H](CC(=O)O)NC(=O)[C@H](C)NC(=O)[C@H](CC(=O)O)NC(=O)[C@H](CO)NC(=O)[C@H](CC(N)=O)NC3=O)C(=O)N[C@@H](C)C(=O)N[C@@H](CC(N)=O)C(=O)N[C@@H](CCCCN)C(=O)N[C@@H](CCC(=O)O)C(=O)N[C@@H](CCCCN)C(=O)N2 [biotin-PEG2-MK1-3.6.10S] ({Biotin-PEG2}-SCNRLNKKCNSDADCCANKEKCERPIGWKFMYCRPDVGP-OH; disulfide 2-16, 9-22, 15-33; C-terminus assumed)
[2]
  binding to RNF43: did not bind

## human ZNRF3 (free, in solution) (from UniProt Q9ULT6 56-936) (natural protein)
biotin-PEG12-MK1-3.6.10S
  Kd: 118 nM
biotin-PEG2-MK1-3.6.10S
  Kd: 149 nM
